Values of other authors, collected in US20110071125A1, “SUBSTITUTED PHENYLAMINO-BENZENE DERIVATIVES USEFUL FOR TREATING HYPER-PROLIFERATIVE DISORDERS AND DISEASES ASSOCIATED WITH MITOGEN EXTRACELLULAR KINASE ACTIVITY” (priority 2007, published 2011).

Tested on: colon cancer
Settings: oral treatment, mouse models, ref. [18]

O=C(NOCC1CC1)c1ccc(F)c(F)c1Nc1ccc(I)cc1Cl [PD184352]
colon cancer growth in vivo: inhibit colon cancer growth in vivo
